Marks after values point to notes of the source that are not given here.
Legend:
mungbean seedling growth = settings: cited from earlier work
[1] = tested on: 15-day-old chick embryo retina; settings: 1 mM, incubated for 30 minutes in BSS, pilot studies; cited from earlier work
[2] = tested on: 15-day-old chick embryo retina; settings: agonist alone, 30 minutes, pilot experiments
Excerpt: This assay is adapted from procedures described in literature sources [Olney, J.W., Price, M.T., Fuller, T.A., Labruyere, J., Samson, L., Carpenter, M., Mahan, K., "The Anti-Excitotoxic Effects of Certain Anesthetics, Analgesics and Sedative-Hypnotics", Neuroscience Letters, 68, 29-34, (1986)]. By an approach similar to that earlier described [Reif-Lehrer, L., Bergenthal, J. and Hanninen, L., "Effects of Monosodium Glutamate on Chick Embryo Retina in Culture", Invest. Ophthalmol., 14, 114-124, (1975)], 15-day-old chick embryos were decapitated and their eyes removed and cut into quadrants after excising the cornea and removing the lens, vitreous and iris. The retinal quadrants were then gently separated from the pigment epithelium and incubated for 30 minutes at 37°C in a standard balanced salt solution (BSS) to which test compounds, either excitatory amino acid agonists or potential antagonists or both, were added in various concentrations. As described elsewhere [Olney, J.W., Price, M.T., Samson, L. and Labruyere, J., "The Role of Specific Ions in Glutamate Neurotoxicity". Neurosci. Lett.. […]

KA neurotoxicity = assay: In vitro chick retina assay, protection against KA; assay type: cell-based; settings: concentration required to completely prevent toxicity of KA (25 µM); 30 minutes at 37°C
Excerpt: (§1) This assay is adapted from procedures described in literature sources [Olney, J.W., Price, M.T., Fuller, T.A., Labruyere, J., Samson, L., Carpenter, M., Mahan, K., "The Anti-Excitotoxic Effects of Certain Anesthetics, Analgesics and Sedative-Hypnotics", Neuroscience Letters, 68, 29-34, (1986)]. By an approach similar to that earlier described [Reif-Lehrer, L., Bergenthal, J. and Hanninen, L., "Effects of Monosodium Glutamate on Chick Embryo Retina in Culture", Invest. Ophthalmol., 14, 114-124, (1975)], 15-day-old chick embryos were decapitated and their eyes removed and cut into quadrants after excising the cornea and removing the lens, vitreous and iris. The retinal quadrants were then gently separated from the pigment epithelium and incubated for 30 minutes at 37°C in a standard balanced salt solution (BSS) to which test compounds, either excitatory amino acid agonists or potential antagonists or both, were added in various concentrations. As described elsewhere [Olney, J.W., Price, M.T., Samson, L. and Labruyere, J., "The Role of Specific Ions in Glutamate Neurotoxicity". Neurosci. Lett.. […] After incubation for 30 minutes, the retinal quadrants were fixed by immersion in phosphate-buffered solution containing 1.5% glutaraldehyde and 1% paraformaldehyde, then additionally fixed in 1% osmium tetroxide and embedded in araldite, allowing sections to be cut for either light or electron microscopy [Olney, J.W., "Glutamate-Induced Retinal Degeneration in Neonatal Mice. Electron Microscopy of the Acutely Evolving Lesion", J. Neuropathol. Exp. Neurol., 28, 455-474, (1969)]. […] Neurosci. […] For purposes of the present study, NMDA and KA were the agonists employed and numerous potential antagonists were tested at various concentrations for their ability to prevent NMDA or KA neurotoxicity. […] Internal controls on each experiment consisted of at least 6 specimens being incubated with agonist alone (NMDA 200 µM or KA 25 µM). […]

[3] = tested on: rat brain synaptic membranes (SPM); assay: [³H]TCP modulation assay; assay type: binding
Protocol: The effect on [³H]TCP (1-[1-(2-thienyl)-cyclohexyl]piperidine) binding was measure in rat brain synaptic membranes (SPM) prepared as previously described (J.B. Monahan and J. Michel; J. Neurochem., 48, 1699-1708, (1987)). Prior to their use in the binding assay, frozen SPM were thawed, diluted twenty fold with 50 mM Tris/acetate, pH 7.4 containing 0.04% (v/v) Triton X-100, incubated for 30 min., at 37°C and centrifuged at 95,000 xspg for 15 min. The Triton X-100 treated SPM were washed with 5 mM Tris/HCl, pH 7.4 and centrifuged a total of six times. The compounds of the invention were incubated with SPM (0.2-0.4 mg protein) and 2 nM [³H]TCP in a total volume of 0.5 ml of 5 mM Tris/HCl buffer pH 7.4 at 25°C for 60 min. The samples were filtered through glass fiber filters (Schleicher & Schuell #32) which have been pretreated with 0.05% (v/v) polyethylenimine, washed with 2 ml of ice-cold 5 mM Tris/HCl buffer, and then counted on a Beckman LS 5800 liquid scintillation counter with automatic corrections for quenching and counting efficiency. Antagonist character was defined as the ability of the test compound to inhibit [³H]TCP binding in the presence of 1 µM L-glutamate, while agonist character is shown by stimulation of either basal [³H]TCP binding or the binding in the presence of 10 µM D-AP7, a specific competitive NMDA antagonist. Non specific binding was defined as the residual binding in the presence of 60 µM phencyclidine.

NMDA = assay: Glutamate binding assay, NMDA-specific L-[³H]glutamate binding to synaptic plasma membranes; settings: 12.5 nM L-[³H]glutamate, SPM, 0-4°C, 10 minutes
Protocol: (§2) The purpose of this assay is to determine the binding affinity of a compound of Formula I for the three glutamic acid receptor sub-types. (NMDA, QUIS, Kainate). It is expected that a compound interacting with one of these sub-type receptors will mimic or antagonize the effect of the endogenous ligand and thereby have a memory enhancing effect or have a neuroprotective and/or anti-epileptic effects. This procedure was carried out as follows:
(§3) Synaptic plasma membranes (SPM) were prepared as previously described [Monahan, J.B. and Michel, J., "Identification and Characterization of an N-methyl-D-aspartate-specific L-[³H]glutamate Recognition Site in Synaptic Plasma Membranes, J. Neurochem., 48, 1699-1708 (1987)]. The SPM were stored at a concentration of 10-15 mg/ml in 0.32M sucrose, 0.5 mM EDTA, 1mM MgSO₄, 5 mM Tris/SO₄, pH 7.4, under liquid nitrogen. The identity and purity of the subcellular fractions were confirmed by both electron microscopy and marker enzymes. Protein concentrations were determined by using a modification of the method of Lowry [Ohnishi, S.T. and Barr, J.K., "A Simplified Method of Quantitating Proteins Using the Biuret and Phenol Reagents", Anal. Biochem., 86, 193-197 (1978)]. The SPM were treated identically for the [³H]AMPA (QUIS), [³H]kainate and NMDA-specific L-[³H]glumatate binding assays. The SPM were thawed at room temperature, diluted twenty-fold with 50mM Tris/-acetate, pH 7.4, incubated at 37°C for 30 minutes, and centrifuged at 100,000 g for 15 minutes. The dilution, incubation, and centrifugation was repeated a total of three times. The basic procedure for the receptor subclass binding assays was similar. This general method involved adding the radioligand (12.5 nM L-[³H]glutamate; 0.5 nM [³H]kainate or 10nM L-[³H]AMPA) to the appropriate concentration of the test compound and initiating the assay by the addition of ice cold SPM (0.2-0.45 mg). The binding assays were performed in 1.5 ml centrifuge tubes with the total volume adjusted to 1.0 ml. Additions of test compounds were made in 50 mM Tris/acetate, pH 7.4 and incubations were carried out at 0-4°C. The incubation time for the NMDA and the AMPA binding assays was 10 minutes and for the kainate binding assay 60 minutes. The AMPA binding assay contained 100 mM KSCN. […] The supernatant was aspirated and the pelleted membranes dissolved in Beckman Ready-Protein scintillation cocktail and the samples counted on a Beckman LS 5800 or 3801 liquid scintillation counter with automatic corrections for quenching and counting efficiency. […] Radioligand binding to the SPM was analyzed using Scatchard and Hill transformations and the Ki values of the compounds determined using logit-log transformations. […]

Kainate = assay: Glutamate binding assay, [³H]kainate binding to synaptic plasma membranes; settings: 0.5 nM [³H]kainate, SPM, 0-4°C, 60 minutes
Protocol: as §2, §3

NMDA neurotoxicity = assay: In vitro chick retina assay, protection against NMDA; assay type: cell-based; settings: for % protection vs NMDA: NMDA 200 µM; for Antagonist activity vs NMDA: concentration required to completely prevent toxicity of NMDA (200 µM), 30 minutes at 37°C
Excerpt: as §1

QA = assay: In vitro chick retina assay, protection against QA; assay type: cell-based; settings: 30 minutes at 37°C; QA concentration not given
QUIS = assay: Glutamate binding assay, [³H]AMPA (QUIS) binding to synaptic plasma membranes; settings: 10nM [³H]AMPA, 100 mM KSCN, SPM, 0-4°C, 10 minutes
Protocol: as §2, §3

SMILES | Antagonist activity vs KA (KA neurotoxicity) | Ki (NMDA) | Binding Ki KA (Kainate) | Antagonist activity vs NMDA (NMDA neurotoxicity) | Antagonist activity vs QA (QA) | Ki (QUIS) | also measured
NC(C(=O)O)[C@@H]1C[C@@H]1C(=O)O (relative stereo) [cis-α-(carboxycyclopropyl)glycine] | – | – | – | – | – | – | inhibition of mungbean seedling growth (mungbean seedling growth): potent inhibitor
N[C@@H](CCC(=O)O)C(=O)O [Glu, Glutamate] | – | – | – | – | – | – | retinal lesion [1]: a fully developed lesion occurs
C=C(C)[C@H]1CN[C@H](C(=O)O)[C@H]1CC(=O)O [KA, Kainate] | – | – | – | – | – | – | lowest concentrations required to consistently obtain fully developed retinal lesions [2]: 25 µM
CN[C@H](CC(=O)O)C(=O)O [NMDA, N-methyl-D-aspartate] | – | – | – | – | – | – | lowest concentrations required to consistently obtain fully developed retinal lesions [2]: 200 µM
N[C@H](CC1CC1C(=O)O)C(=O)O (stereo partly drawn) [cis-D-2-amino-4,5-methyleneadipic acid, Cis-D-2-amino-4,5-methyleneadipic acid] | >500 µM | 1.9 µM | 13.0 µM | > 75 µM | >500 µM | > 300 µM | maximal stimulation of [³H]TCP binding ([3]; compared with the full agonist glutamate): substantially less than that shown for the full agonist glutamate; [³H]TCP Bound ([3]; compound 100 µM, in presence of D-AP7 (10µM), control without compound 5016): 11453 DPM; [³H]TCP Bound ([3]; compound 100 µM, in presence of L-Glutamate (1µM), control without compound 15466): 12265 DPM; [³H]TCP Bound ([3]; compound 200 µM, in presence of D-AP7 (10µM), control without compound 5016): 11161 DPM; [³H]TCP Bound ([3]; compound 200 µM, in presence of L-Glutamate (1µM), control without compound 15466): 11880 DPM; [³H]TCP Bound ([3]; compound 400 µM, in presence of D-AP7 (10µM), control without compound 5016): 9345 DPM; [³H]TCP Bound ([3]; compound 400 µM, in presence of L-Glutamate (1µM), control without compound 15466): 9622 DPM; effect on quantity of [³H]TCP bound ([3]; in the presence of D-APH): agonist effect; effect on quantity of [³H]TCP specifically bound ([3]; in the presence of L-glutamic acid): antagonist effect; % protection vs NMDA (NMDA neurotoxicity; compound at 10 µM): 10(0%)*; % protection vs NMDA (NMDA neurotoxicity; compound at 25 µM): 25(33%)*; % protection vs NMDA (NMDA neurotoxicity; compound at 50 µM): 50(66%)*; % protection vs NMDA (NMDA neurotoxicity; compound at >75 µM): 100%
N[C@@H](CC1CC1C(=O)O)C(=O)O (stereo partly drawn) [cis-L-2-amino-4,5-methyleneadipic acid, Cis-L-2-amino-4,5-methyleneadipic acid] | >500 µM | 14.2 µM | 23.0 µM | >500 µM | >500 µM | > 300 µM | –
N[C@H](CC1CC1C(=O)O)C(=O)O (stereo partly drawn) [trans-D-2-amino-4,5-methyleneadipic acid, Trans-D-2-amino-4,5-methyleneadipic acid] | >500 µM | 2.2 µM | 25.0 µM | > 125 µM | >500 µM | > 300 µM | % protection vs NMDA (NMDA neurotoxicity; compound at 50 µM): 50(0%)*; % protection vs NMDA (NMDA neurotoxicity; compound at 75 µM): 75(66%)*; % protection vs NMDA (NMDA neurotoxicity; compound at >125 µM): 100%
N[C@@H](CC1CC1C(=O)O)C(=O)O (stereo partly drawn) [trans-L-2-amino-4,5-methyleneadipic acid, Trans-L-2-amino-4,5-methyleneadipic acid] | >500 µM | 2.5 µM | 37.0 µM | >500 µM | >500 µM | > 300 µM | –
